Data as given in the NIST ThermoML archive (doi:10.1016/j.jct.2011.01.014).

Assay: xn = mol fraction of the nth substance listed
Settings: 101 kPa, Liquid; for speed of sound: sound velocity cell; for mass density: Vibrating tube method

CC(=O)[O-].[NH3+]CCO [2-hydroxyethylammonium acetate] + O
Settings	mass density, 298.15 K [kg/m3]	mass density, 300.65 K [kg/m3]	mass density, 303.15 K [kg/m3]	mass density, 305.65 K [kg/m3]	speed of sound, 295.65 K [m/s]	speed of sound, 298.15 K [m/s]	speed of sound, 300.65 K [m/s]	speed of sound, 303.15 K [m/s]
x1 = 0.051	1051.43	1050.38	1049.3	1048.18	–	1685.5	1687.2	1688.6
x1 = 0.1019	1080.72	1079.57	1078.39	1077.21	–	1766.7	1765.8	1764.8
x1 = 0.1963	1111.36	1110.06	1108.74	1107.43	–	1827	1823.9	1820.6
x1 = 0.2894	1125.89	1124.53	1123.17	1121.8	–	1835.5	1831.6	1827.5
x1 = 0.3959	1135.24	1133.86	1132.47	1131.08	–	1825.2	1820.6	1816
x1 = 0.5016	1140.33	1138.94	1137.56	1136.16	–	1814.2	1809.4	1804.6
x1 = 0.5821	1142.82	1141.44	1140.07	1138.68	1816.5	1811.6	1806.7	1801.9
x1 = 0.6837	1144.63	1143.27	1141.9	1140.52	1808.4	1803.3	1798.2	1793.2
x1 = 0.7763	1146.5	1145.08	1143.67	1142.31	1807.5	1802.1	1796.9	1791.7
x1 = 0.8761	1147.91	1146.49	1145.07	1143.65	1798.7	1793	1787.4	1782
x1 = 0.9137	1148.26	1146.85	1145.43	1144.01	1800.5	1794.7	1789.1	1783.6
x1 = 1	1149.04	1147.63	1146.22	1144.8	1796.8	1790.7	1784.8	1779
